In one experiment the target is T1, GR (Homo sapiens, UniProt P04150).
T1 construct: expressed in transfected cells; host or cells: CV-1 cells, transient transfection (plasmid a gift of Keith Yamamoto, UCSF)
T1 sequence (P04150 1-777): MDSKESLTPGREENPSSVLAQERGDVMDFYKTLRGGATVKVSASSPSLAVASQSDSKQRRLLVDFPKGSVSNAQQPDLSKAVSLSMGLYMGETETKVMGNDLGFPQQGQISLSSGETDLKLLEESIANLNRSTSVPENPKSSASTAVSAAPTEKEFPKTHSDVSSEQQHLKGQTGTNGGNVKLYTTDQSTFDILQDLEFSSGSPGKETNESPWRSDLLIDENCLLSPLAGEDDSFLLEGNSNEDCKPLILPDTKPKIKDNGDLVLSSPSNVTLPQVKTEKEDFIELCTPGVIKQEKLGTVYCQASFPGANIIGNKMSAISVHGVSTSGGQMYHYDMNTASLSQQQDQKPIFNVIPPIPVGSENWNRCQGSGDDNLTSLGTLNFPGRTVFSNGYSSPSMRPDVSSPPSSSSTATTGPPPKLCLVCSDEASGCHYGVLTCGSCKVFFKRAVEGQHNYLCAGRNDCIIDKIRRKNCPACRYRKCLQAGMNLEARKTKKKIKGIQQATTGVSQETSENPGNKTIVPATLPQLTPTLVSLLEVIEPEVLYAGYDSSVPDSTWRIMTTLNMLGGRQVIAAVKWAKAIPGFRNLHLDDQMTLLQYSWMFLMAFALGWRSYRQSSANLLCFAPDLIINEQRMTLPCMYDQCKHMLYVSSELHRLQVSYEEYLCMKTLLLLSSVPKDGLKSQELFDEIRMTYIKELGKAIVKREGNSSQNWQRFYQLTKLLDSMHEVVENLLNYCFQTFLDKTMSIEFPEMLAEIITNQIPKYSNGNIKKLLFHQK
Briefly: GRE (TAT3-Luc) activation luciferase assay in CV-1 cells transfected with GR. It is filed as cell-based. The method, then:
Cells were plated into tissue culture treated, 96 well flat bottom plates (25,000 cells/well), and incubated for 12 h at 37° C. Cells were then transfected using the Lipofectamine PLUS transfection reagent (Gibco BRL). DNA-lipid complexes of 5 ng GR, 50 ng TAT3-Luc, 7.5 ng β-galactosidase, 1 μL-well PLUS reagent and 0.67 μL-well lipofectamine in 50 μL/well serum free media were added to cells and incubated for 4 h at 37° C. Complexes were removed and hormones diluted in 5% charcoal-stripped FBS were added to the cells, which were then incubated for 24 hours at 37° C. Media was removed and the cells were washed with 100 μL Ca^+2, Mg^+2 free phosphate buffered saline (PBS). Lysis was achieved by adding 50 μL of Passive Lysis Buffer (Promega Corp, Madison, Wis.) and shaking the plate for 15 min. 15 μL of this lysate was then used to assay β-galactosidase activity (β-galactosidase enzyme assay system, Promega Corp., recommended procedures followed). The Luciferase Assay System (Promega Corp.) was used to assay luciferase activity. 100 μL of luciferase assay reagent was added rapidly to the plate and luminescence was measured for 10 ms/well on an Analyst AD Detection System (LJL Biosystems, Sunnyvale, Calif.).

Another experiment deals with T2, PR (Homo sapiens, UniProt P06401).
T2 sequence (P06401 1-933): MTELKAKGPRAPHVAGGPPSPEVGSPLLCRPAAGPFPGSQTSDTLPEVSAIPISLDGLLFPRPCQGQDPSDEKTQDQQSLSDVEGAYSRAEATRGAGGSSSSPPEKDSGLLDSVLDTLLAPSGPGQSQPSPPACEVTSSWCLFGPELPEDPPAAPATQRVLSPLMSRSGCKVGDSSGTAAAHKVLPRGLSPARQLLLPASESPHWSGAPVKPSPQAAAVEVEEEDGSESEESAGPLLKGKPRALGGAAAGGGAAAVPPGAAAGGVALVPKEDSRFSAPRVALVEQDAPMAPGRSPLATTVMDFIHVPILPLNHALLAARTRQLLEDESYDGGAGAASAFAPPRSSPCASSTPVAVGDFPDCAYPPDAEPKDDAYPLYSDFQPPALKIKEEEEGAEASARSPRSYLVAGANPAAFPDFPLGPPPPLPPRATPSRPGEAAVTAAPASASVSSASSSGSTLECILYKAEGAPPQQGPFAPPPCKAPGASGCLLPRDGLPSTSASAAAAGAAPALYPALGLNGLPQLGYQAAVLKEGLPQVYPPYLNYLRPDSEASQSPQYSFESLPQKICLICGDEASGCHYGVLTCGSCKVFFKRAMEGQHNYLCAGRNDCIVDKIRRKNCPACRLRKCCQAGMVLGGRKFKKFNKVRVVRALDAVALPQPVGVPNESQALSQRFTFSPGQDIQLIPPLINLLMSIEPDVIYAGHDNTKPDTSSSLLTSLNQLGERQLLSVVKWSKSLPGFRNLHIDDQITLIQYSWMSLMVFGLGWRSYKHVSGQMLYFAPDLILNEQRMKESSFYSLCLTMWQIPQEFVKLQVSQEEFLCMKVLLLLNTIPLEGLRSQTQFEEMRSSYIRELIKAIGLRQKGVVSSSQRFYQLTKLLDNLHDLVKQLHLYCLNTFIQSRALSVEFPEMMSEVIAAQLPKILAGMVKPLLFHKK
Briefly: PR activation (max fold activation). In kind it is cell-based. To be noted: Table 4.

For experiment [1], the target named is T3, glucocorticoid receptor (GR) (Homo sapiens, UniProt P04150).
T3 construct: purchased Panvera Corp, Madison, Wis
T3 sequence (P04150 1-777): T1 sequence (P04150 1-777)
Briefly: Glucocorticoid Receptor Competitor Assay Kit (Panvera) ligand binding. To be noted: relative binding affinity, dexamethasone = 100; for GR binding RBA (dex = 100): Table 3. An excerpt:
The Glucocorticoid Receptor Competitor Assay Kit (Panvera Corp, Madison, Wis.) was used for ligand binding studies. The recommended room temperature protocol was followed for all assayed ligands.

Where [2] appears, read: Table 4, read-out: GR pot (EC50).

Structures are written as SMILES. Where “and” joins values, the source holds several entries; their conditions need not be identical. Equal values may be shown once. Read-outs that look alike come from different tables or passages of the source.

This note sets out measurements from patent publication US7947726B2, “Non-steroidal ligands for the glucocorticoid receptor, and compositions thereof” (The Regents of the University of California, priority 2002, dated 2011).

As to `CC12Cc3cnn(-c4ccc(F)cc4)c3C=C1CCCC2C(O)c1ccsc1` (stereo not drawn) [Compound 238, [1-(4-Fluoro-phenyl)-4a-methyl-4,4a-5,6,7,8-hexahydro-1H-benzo[f]indazol-5-yl]-thiophen-3-yl-methanol], the “GRE activation max fold activation” value at GR (Table 4) is 86 ± 4 and 112 ± 75. Further, on GR (setting [2]), the EC50 (commonly the concentration giving half of the maximal effect) is 0.251 µM and 0.23 µM. The “PR max fold activation” value at PR was 155 ± 32 and 109 ± 10.

As to `CC12Cc3cnn(-c4ccc(F)cc4)c3C=C1CCCC2C(O)c1cccc2[nH]ccc12` (stereo not drawn) [Compound 237, [1-(4-Fluoro-phenyl)-4a-methyl-4,4a,5,6,7,8-hexahydro-1H-benzo[f]indazol-5-yl]-(1H-indol-4-yl)-methanol], in experiment [1], the “GR binding RBA (dex = 100)” value came out at 110. In addition, the “GRE activation max fold activation” value on GR (Table 4) is 92 ± 18. Also, at GR (setting [2]), the EC50 stood at 0.149 ± 0.091 µM.

With `Cc1cc(O)cc(C)c1C(O)C1CCCC2=Cc3c(cnn3-c3ccc(F)cc3)CC21C` (stereo not drawn) [Compound 227, 4-{[1-(4-Fluoro-phenyl)-4a-methyl-4,4a,5,6,7,8-hexahydro-1H-benzo[f]indazol-5-yl]-hydroxy-methyl}-3,5-dimethyl-phenol], in experiment [1] (Table 1), the “GR Binding RBA (dexamethasone = 100)” value is on record as 50. Moreover, in experiment [1], the “GR binding RBA (dex = 100)” value is on record as 103. For the same compound, the EC50 on GR (Table 1, read-out: GR pot(EC50)) came to 0.125 µM; at GR (setting [2]) it was 0.13 ± 0.043 µM. For the same compound, the “GRE activation max fold activation” value at GR (Table 4) is 95 ± 23. Besides, the “PR max fold activation” value at PR stood at 144 ± 32.
